From paper PMC10197068 (Bioconjugate Chemistry, 2023)
Several values for one entry are separate records, joined by “and”; a condition that tells them apart may be missing. Identical values can stand only once. Each block holds one compound with its values, some of them ahead of it.

Assays:
[1] = system: G1 (Na+) monomeric HTelo G4 DNA, AGGG(TTAGGG)3; experiment: CD melting with G1 (Na+); type: binding, human; conditions: CD melting at 295 nm, 25 to 95 °C at 2 °C/min; 100 mM NaCl, 10 mM Li cacodylate, pH 7.3; [G4 unit] 6 μM, [salphen unit] 12 μM
Method: (§1) Next, the DNA binding properties of the monomeric and dimeric compounds were studied. […] The following notation is used: […] The CD melting experiments were conducted solely with Na^+ stabilized DNA, which forms an antiparallel topology in solution (cf., in the presence of K^+ a mixture of topologies is observed). During the assay the temperature was increased from 25 to 95 °C upon which the intensity of signals with negative ellipticity at ca. 265 nm and positive ellipticity at ca. 295 (characteristic of an antiparallel G4 structure) decreased-see Figure 4a. This indicates the expected unfolding of the G4 DNA structure as the temperature increases. The changes in intensity were subsequently used to produce the corresponding melting curves (Figure 4b) for each sequence in the absence and presence of the different compounds under study. From these curves, the ΔTm values for the different sequences and compounds were determined, and the results are summarized in Figure 4c (see Supplementary Table 1 for values). […] G-Quadruplex oligonucleotides were purchased from Eurogentec (Belgium), and CT-DNA was purchased from Sigma-Aldrich. […] Prior to use, the DNA stock solutions were annealed by heating at 95 °C for 5 min and then cooling to room temperature overnight. Experiments were carried out on a Jasco J-810 spectrophotometer using a 1 cm quartz cuvette. Temperature was controlled using a Peltier module. The signal at 295 nm was monitored as temperature was increased for 25 to 95 °C at a rate of 2 °C/min. CD melting experiments were carried out with the appropriate G4 DNA (100 mM NaCl, 10 mM Li cacodylate, pH 7.3). Sample preparation was carried out by combining stock solutions of ligand and DNA in the appropriate buffer. […] Melting temperatures were obtained by curve fitting in Graphpad Prism 8. The data was normalized and fitted to a variable slope Hill equation, and the melting temperature was defined at the temperature at which y = 0.5.

[2] = system: G2T1 (Na+) dimeric HTelo G4 DNA, AGGG(TTAGGG)7; experiment: CD melting with G2T1 (Na+); type: binding, human; conditions: for ΔTm G2T1 (Na+): CD melting at 295 nm, 25 to 95 °C at 2 °C/min, 100 mM NaCl, 10 mM Li cacodylate, pH 7.3, [G4 unit] 6 μM (3 μM dimeric sequence), [salphen unit] 12 μM
Method: as §1

[3] = system: G2T6 (Na+) dimeric HTelo G4 DNA, AGGG(TTAGGG)3(TTA)5(TTAGGG)4; experiment: CD melting with G2T6 (Na+); type: binding, human; conditions: for ΔTm G2T6 (Na+): CD melting at 295 nm, 25 to 95 °C at 2 °C/min, 100 mM NaCl, 10 mM Li cacodylate, pH 7.3, [G4 unit] 6 μM (3 μM dimeric sequence), [salphen unit] 12 μM
Method: as §1

[4] = system: G1 (K+) monomeric HTelo G4 DNA; experiment: Emission titration with G1 (K+); type: binding, human; conditions: Table S2, unit not given, ligand 2 μM, 100 mM KCl, 10 mM Li cacodylate, pH 7.3, exc 440 nm, em 590 nm, triplicate
Method: (§2) Next, emission titrations were carried out with the emissive Pt^II compounds M2 and D3–8 and G4/duplex DNA to obtain association constants. Both Na^+ and K^+ stabilized monomeric and dimeric G4 DNA were investigated. Additionally, titrations were carried out with CT-DNA to evaluate the selectivity for G4 versus duplex DNA. Figure 5 summarizes the obtained results (see Figures S24–S37 and Table S2 for a full set of titration data). First discussed are the experiments conducted in Na^+ buffer, in which the G4 topology formed is antiparallel.[41] […] As discussed previously, this could potentially be caused by a “sandwiched” binding mode in which the metal-salphen complex sits between two G-quadruplex units. For dimeric metal-salphen complexes D3–8, however, there are several differences when compared to the CD melting studies. […] Upon increasing the linker length to a two-amino-acid sequence (RR and KK for compounds D4 and D5, respectively), larger Ka values were obtained with minimal change to the pattern of selectivity. […] Increasing the linker length to an eight-amino-acid sequence (RRRRRRRR) led to a similar stabilization of G2T6, while G1 stabilization increased.
(§3) G-Quadruplex oligonucleotides were purchased from Eurogentec (Belgium), and CT-DNA was purchased from Sigma-Aldrich. Stock solutions were prepared via dilution in the appropriate buffers to concentrations of 300–400 μM determined by UV–vis measurements in which increasing amounts of DNA were added to a cuvette and the absorbance at 260 nm recorded using an Agilent Cary UV 60 spectrometer. Prior to use, the DNA stock solutions were annealed by heating at 95 °C for 5 min and then cooling to room temperature overnight.
(§4) Experiments were carried out using a BMG Clariostar Microplate reader with Greiner Bio-One half-volume (100 μL/well) plates. Excitation was carried out at 440 nm and recorded from 500 to 700 nm in addition to a matrix scan at 590 nm. Titrations were carried out using G1, G2T1, and G2T6 (Na^+) G4 DNA (100 mM NaCl, 10 mM Li cacodylate, pH 7.3); G1, G2T1, and G2T6 (K^+) G4 DNA (100 mM KCl, 10 mM Li cacodylate, pH 7.3); and CT-DNA (100 mM KCl, 10 mM Li cacodylate, pH 7.3). Ligand concentration was kept constant at 2 μM, and the following DNA equivalents were tested: 0, 0.1, 0.2, 0.3, 0.4, 0.5, 0.75, 1, 1.5, 2, 3, and 5 (for CT-DNA 10× base pair equivalents were used, i.e., 1 to 50 BPE). Sample preparation was carried out by preparing stock solutions of double concentration ligand (4 μM) and DNA in the appropriate buffer, before 50 μL of each was added to the appropriate well and mixed. Experiments were conducted in triplicate and binding constants were obtained by curve fitting in Graphpad Prism 8 using eq 1.[46] [drawing 1] 1
(§5) Fluorescence response (y) was fitted against DNA concentration (x); R is the machine response, K is the association constant of ligand and DNA, L is the concentration of ligand, and n is the number of binding sites per DNA. The values of L and n were varied so that that the L was equal to the number of salphen units and n was equal to the number of G4 faces per DNA. The matrix scan results were used to plot the titration curves and 500–700 nm scan results were used to confirm that expected curve shapes and shifts were observed.

[5] = system: G2T1 (K+) dimeric HTelo G4 DNA; experiment: Emission titration with G2T1 (K+); type: binding, human; conditions: Table S2, unit not given, ligand 2 μM, 100 mM KCl, 10 mM Li cacodylate, pH 7.3, exc 440 nm, em 590 nm, triplicate
Method: as §2, §3, §4, §5

[6] = system: G2T6 (K+) dimeric HTelo G4 DNA; experiment: Emission titration with G2T6 (K+); type: binding, human; conditions: Table S2, unit not given, ligand 2 μM, 100 mM KCl, 10 mM Li cacodylate, pH 7.3, exc 440 nm, em 590 nm, triplicate
Method: as §2, §3, §4, §5

[7] = system: G1 (Na+) monomeric HTelo G4 DNA; experiment: Emission titration with G1 (Na+); type: binding, human; conditions: Table S2, unit not given, ligand 2 μM, 100 mM NaCl, 10 mM Li cacodylate, pH 7.3, exc 440 nm, em 590 nm, triplicate
Method: as §2, §3, §4, §5

[8] = system: G2T1 (Na+) dimeric HTelo G4 DNA; experiment: Emission titration with G2T1 (Na+); type: binding, human; conditions: Table S2, unit not given, ligand 2 μM, 100 mM NaCl, 10 mM Li cacodylate, pH 7.3, exc 440 nm, em 590 nm, triplicate
Method: as §2, §3, §4, §5

[9] = system: G2T6 (Na+) dimeric HTelo G4 DNA; experiment: Emission titration with G2T6 (Na+); type: binding, human; conditions: Table S2, unit not given, ligand 2 μM, 100 mM NaCl, 10 mM Li cacodylate, pH 7.3, exc 440 nm, em 590 nm, triplicate
Method: as §2, §3, §4, §5

CT-DNA (duplex DNA) = experiment: Emission titration with duplex DNA; type: binding
Method: Next, emission titrations were carried out with the emissive Pt^II compounds M2 and D3–8 and G4/duplex DNA to obtain association constants. Both Na^+ and K^+ stabilized monomeric and dimeric G4 DNA were investigated. Additionally, titrations were carried out with CT-DNA to evaluate the selectivity for G4 versus duplex DNA. Figure 5 summarizes the obtained results (see Figures S24–S37 and Table S2 for a full set of titration data). First discussed are the experiments conducted in Na^+ buffer, in which the G4 topology formed is antiparallel.[41] […] As discussed previously, this could potentially be caused by a “sandwiched” binding mode in which the metal-salphen complex sits between two G-quadruplex units. For dimeric metal-salphen complexes D3–8, however, there are several differences when compared to the CD melting studies. […] Upon increasing the linker length to a two-amino-acid sequence (RR and KK for compounds D4 and D5, respectively), larger Ka values were obtained with minimal change to the pattern of selectivity. […] Increasing the linker length to an eight-amino-acid sequence (RRRRRRRR) led to a similar stabilization of G2T6, while G1 stabilization increased. […]
as §3, with “Prior to use, the DNA stock solutions were annealed by heating at 95 °C for 5 min and then cooling to room temperature overnight.” left out
Experiments were carried out using a BMG Clariostar Microplate reader with Greiner Bio-One half-volume (100 μL/well) plates. Excitation was carried out at 440 nm and recorded from 500 to 700 nm in addition to a matrix scan at 590 nm. […]
Fluorescence response (y) was fitted against DNA concentration (x); R is the machine response, K is the association constant of ligand and DNA, L is the concentration of ligand, and n is the number of binding sites per DNA. […]

[10] = system: G2T1 (DNA, G4) AGGGTTAGGGTTAGGGTTAGGGTTAGGGTTAGGGTTAGGGTTAGGG; experiment: CD melting at 295 nm; conditions: 100 mM NaCl; 10 mM Li cacodylate, pH 7.3; 12 μM compound, 3 μM DNA
[11] = system: G2T6 (DNA, G4) AGGGTTAGGGTTAGGGTTAGGGTTATTATTATTATTATTAGGGTTAGGGTTAGGGTTAGGG; experiment: CD melting at 295 nm; conditions: 100 mM NaCl; 10 mM Li cacodylate, pH 7.3; 12 μM compound, 3 μM DNA

Compound: C[N+](C)(C)CCOc1ccc2c(c1)[O][Ni][O]c1cc(OCC[N+](C)(C)C)ccc1C=Nc1cc(C(=O)NCc3cn(CCOCCOCCn4cc(CNC(=O)c5ccc6c(c5)N=Cc5ccc(OCC[N+](C)(C)C)cc5[O][Ni][O]c5cc(OCC[N+](C)(C)C)ccc5C=N6)nn4)nn3)ccc1N=C2.F[P-](F)(F)(F)(F)F.F[P-](F)(F)(F)(F)F.F[P-](F)(F)(F)(F)F.F[P-](F)(F)(F)(F)F [Compound D2]
ΔTm G1 (Na+) [1]: 2.66 °C
ΔTm G2T1 (Na+) [2]: 13.80 °C
ΔTm G2T6 (Na+) [3]: 11.14 °C

Compound: RKKR [Compound D7]
ΔTm G1 (Na+) [1]: 2.6 °C
ΔTm G2T1 (Na+) [2]: 16.33 °C and 16.3 °C
fold increase in stabilization of G2T1 ([2]; ΔTm of D7 relative to D4): 1.1 fold
ΔTm G2T6 (Na+) [3]: 13.81 °C and 13.8 °C
fold increase in stabilization of G2T6 ([3]; ΔTm of D7 relative to D3): 2.1 fold
Association constant G1 (K+), mean [4]: 0.39
Association constant G2T1 (K+), mean [5]: 0.18
Association constant G2T6 (K+), mean [6]: 0.42
Association constant G1 (Na+), mean [7]: 0.21
Association constant G2T1 (Na+), mean [8]: 0.36
Association constant G2T6 (Na+), mean [9]: 0.69

Compound: C[N+](C)(C)CCOc1ccc2c(c1)[O][Pt][O]c1cc(OCC[N+](C)(C)C)ccc1C=Nc1cc(C(=O)NCc3cn(CCOCCn4cc(CNC(=O)c5ccc6c(c5)N=Cc5ccc(OCC[N+](C)(C)C)cc5[O][Pt][O]c5cc(OCC[N+](C)(C)C)ccc5C=N6)nn4)nn3)ccc1N=C2 [Compound D3]
ΔTm G1 (Na+) [1]: 3.02 °C and 3.0 °C
ΔTm G2T1 (Na+) [2]: 15.29 °C
ΔTm G2T6 (Na+) [3]: 6.43 °C and 6.4 °C
Association constant G1 (K+), mean [4]: 0.17
Association constant G2T1 (K+), mean [5]: 0.13
Association constant G2T6 (K+), mean [6]: 0.16
Association constant G1 (Na+), mean [7]: 0.17
Association constant G2T1 (Na+), mean [8]: 0.24
Association constant G2T6 (Na+), mean [9]: 0.19
Ka for duplex DNA (CT-DNA (duplex DNA); CT-DNA up to 50 base pair equivalents, 100 mM KCl, 10 mM Li cacodylate, pH 7.3, ligand 2 μM): 5.0 × 10^3 M^–1
fold reduction in duplex DNA binding (CT-DNA (duplex DNA); compared with monomeric complex M2): 10 fold

Compound: RRRR [Compound D6]
ΔTm G1 (Na+) [1]: 3.49 °C
ΔTm G2T1 (Na+) [2]: 14.83 °C
ΔTm G2T6 (Na+) [3]: 13.27 °C
Association constant G1 (K+), mean [4]: 0.28
Association constant G2T1 (K+), mean [5]: 0.18
Association constant G2T6 (K+), mean [6]: 0.52
Association constant G1 (Na+), mean [7]: 0.07
Association constant G2T1 (Na+), mean [8]: 0.29
Association constant G2T6 (Na+), mean [9]: 0.99

ΔTm [10]: 21 °C
ΔTm [11]: 19 °C
Compound: C[N+](C)(C)CCOc1ccc(C=Nc2ccccc2N=Cc2ccc(OCC[N+](C)(C)C)cc2[O-])c([O-])c1.[Pt+2]
